Measured values from PubChem BioAssay (NCI).
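Following 48 hours of exposure in 96-well plates, responses at five concentrations were used to interpolate endpoints linearly. GI50: concentration for 50% inhibition of growth. At the TGI there is no net growth.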

Tests used:
Assay in all cases: NCI anticancer screen, dose series, 48 h
HCT-116 colon = system: HCT-116 colon
MDA-MB-231 breast = system: MDA-MB-231 breast
NCI/ADR-RES ovarian = system: NCI/ADR-RES ovarian
786-0 renal = system: 786-0 renal
MCF7 breast = system: MCF7 breast
IGROV1 ovarian = system: IGROV1 ovarian
UACC-257 melanoma = system: UACC-257 melanoma
HS 578T breast = system: HS 578T breast
SK-OV-3 ovarian = system: SK-OV-3 ovarian
HT29 colon = system: HT29 colon
SNB-19 CNS = system: SNB-19 CNS
T-47D breast = system: T-47D breast
RXF 393 renal = system: RXF 393 renal
MOLT-4 leukemia = system: MOLT-4 leukemia
OVCAR-5 ovarian = system: OVCAR-5 ovarian
ACHN renal = system: ACHN renal
K-562 leukemia = system: K-562 leukemia
OVCAR-8 ovarian = system: OVCAR-8 ovarian
UO-31 renal = system: UO-31 renal
HCT-15 colon = system: HCT-15 colon
M14 melanoma = system: M14 melanoma
A549 NSCLC = system: A549 NSCLC
OVCAR-4 ovarian = system: OVCAR-4 ovarian
A498 renal = system: A498 renal
SK-MEL-5 melanoma = system: SK-MEL-5 melanoma
MALME-3M melanoma = system: MALME-3M melanoma
SW-620 colon = system: SW-620 colon
SR leukemia = system: SR leukemia
SN12C renal = system: SN12C renal

O=C(Nc1cccc(-c2nc(-c3ccc(NC(=O)c4cccs4)cc3Cl)no2)c1)Nc1ccc(NC(=O)C2CC2)c(C(F)(F)F)c1
GI50 (HCT-116 colon): 321 nM | TGI (HCT-116 colon): 1690 nM | GI50 (MDA-MB-231 breast): 219 nM | TGI (MDA-MB-231 breast): 557 nM | GI50 (NCI/ADR-RES ovarian): 3610 nM | TGI (NCI/ADR-RES ovarian): > 100000 nM | GI50 (786-0 renal): 283 nM | TGI (786-0 renal): 1010 nM | GI50 (MCF7 breast): 220 nM | TGI (MCF7 breast): 643 nM | GI50 (IGROV1 ovarian): 229 nM | TGI (IGROV1 ovarian): 574 nM | GI50 (UACC-257 melanoma): 836 nM | TGI (UACC-257 melanoma): 3230 nM | GI50 (HS 578T breast): 230 nM | TGI (HS 578T breast): 678 nM | GI50 (SK-OV-3 ovarian): 795 nM | TGI (SK-OV-3 ovarian): 2990 nM | GI50 (HT29 colon): 347 nM | TGI (HT29 colon): 2110 nM | GI50 (SNB-19 CNS): 301 nM | TGI (SNB-19 CNS): 1060 nM | GI50 (T-47D breast): 257 nM | TGI (T-47D breast): 972 nM | GI50 (RXF 393 renal): 214 nM | TGI (RXF 393 renal): 494 nM | GI50 (MOLT-4 leukemia): 359 nM | TGI (MOLT-4 leukemia): 1790 nM | GI50 (OVCAR-5 ovarian): 306 nM | TGI (OVCAR-5 ovarian): 1140 nM | GI50 (ACHN renal): 467 nM | TGI (ACHN renal): 3860 nM | GI50 (K-562 leukemia): 296 nM | TGI (K-562 leukemia): 1670 nM | GI50 (OVCAR-8 ovarian): 311 nM | TGI (OVCAR-8 ovarian): 1330 nM | GI50 (UO-31 renal): 993 nM | TGI (UO-31 renal): 3090 nM | GI50 (HCT-15 colon): 409 nM | TGI (HCT-15 colon): 1850 nM | GI50 (M14 melanoma): 324 nM | TGI (M14 melanoma): 1270 nM | GI50 (A549 NSCLC): 246 nM | TGI (A549 NSCLC): 653 nM | GI50 (OVCAR-4 ovarian): 223 nM | TGI (OVCAR-4 ovarian): 492 nM | GI50 (A498 renal): 174 nM | TGI (A498 renal): 742 nM | GI50 (SK-MEL-5 melanoma): 478 nM | TGI (SK-MEL-5 melanoma): 1870 nM | GI50 (MALME-3M melanoma): 183 nM | TGI (MALME-3M melanoma): 376 nM | GI50 (SW-620 colon): 256 nM | TGI (SW-620 colon): 660 nM | GI50 (SR leukemia): 254 nM | TGI (SR leukemia): 898 nM | GI50 (SN12C renal): 220 nM | TGI (SN12C renal): 576 nM
